# Assay results published in patent US9776997B2, “3-aryl-substituted imidazo[1,2-A]pyridines and their use” (Bayer Pharma Aktiengesellschaft, priority 2013, dated 2017).
# Molecular target: T1, recombinant guanylate cyclase reporter cell line (Rattus norvegicus, UniProt P19686+P20595)
# T1 construct: expressed in transfected cells; host or cells: recombinant reporter cell line
# T1 sequence (P19686 1-690): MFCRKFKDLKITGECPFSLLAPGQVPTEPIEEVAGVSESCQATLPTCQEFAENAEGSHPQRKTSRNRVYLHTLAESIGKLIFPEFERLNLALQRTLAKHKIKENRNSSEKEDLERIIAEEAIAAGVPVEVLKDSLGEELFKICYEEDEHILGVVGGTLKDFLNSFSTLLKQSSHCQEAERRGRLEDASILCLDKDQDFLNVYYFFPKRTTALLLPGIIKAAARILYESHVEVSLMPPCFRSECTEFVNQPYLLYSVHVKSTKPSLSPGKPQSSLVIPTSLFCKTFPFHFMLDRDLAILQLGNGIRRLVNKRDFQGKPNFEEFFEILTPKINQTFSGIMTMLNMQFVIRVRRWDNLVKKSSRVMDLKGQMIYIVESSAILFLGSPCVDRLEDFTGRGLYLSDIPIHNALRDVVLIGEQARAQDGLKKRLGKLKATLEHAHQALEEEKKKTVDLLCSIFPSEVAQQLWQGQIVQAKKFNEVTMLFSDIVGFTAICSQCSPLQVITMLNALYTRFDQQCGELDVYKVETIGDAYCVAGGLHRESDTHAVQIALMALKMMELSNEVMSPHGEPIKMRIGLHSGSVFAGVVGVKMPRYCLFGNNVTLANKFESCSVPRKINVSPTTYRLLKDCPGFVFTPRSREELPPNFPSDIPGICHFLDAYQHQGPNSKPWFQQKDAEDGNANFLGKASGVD
# T1 sequence (P20595 1-619): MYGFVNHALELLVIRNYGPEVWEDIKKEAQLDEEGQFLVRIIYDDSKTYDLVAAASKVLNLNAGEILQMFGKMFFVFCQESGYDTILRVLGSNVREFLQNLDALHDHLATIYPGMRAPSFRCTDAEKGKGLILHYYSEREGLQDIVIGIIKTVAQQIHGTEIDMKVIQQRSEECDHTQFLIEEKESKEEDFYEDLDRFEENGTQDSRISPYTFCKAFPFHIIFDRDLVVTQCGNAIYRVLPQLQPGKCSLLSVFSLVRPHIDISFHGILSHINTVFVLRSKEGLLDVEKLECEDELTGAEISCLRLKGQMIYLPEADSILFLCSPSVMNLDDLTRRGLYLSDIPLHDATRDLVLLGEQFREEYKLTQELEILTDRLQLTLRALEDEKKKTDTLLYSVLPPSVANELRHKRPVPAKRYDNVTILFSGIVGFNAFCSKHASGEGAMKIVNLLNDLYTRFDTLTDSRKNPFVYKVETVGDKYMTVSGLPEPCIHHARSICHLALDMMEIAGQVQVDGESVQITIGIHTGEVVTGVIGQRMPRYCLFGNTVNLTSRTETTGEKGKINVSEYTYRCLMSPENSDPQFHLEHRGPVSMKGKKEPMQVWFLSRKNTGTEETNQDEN
# Experiment: Effect on a recombinant guanylate cyclase reporter cell line
# Type: cell-based
# Conditions: MEC = minimum effective concentration; in some cases mean values for individual determinations
# Description: B-2. Effect on a Recombinant Guanylate Cyclase Reporter Cell Line
# The cellular effect of the inventive compounds is determined using a recombinant guanylate cyclase reporter cell line, as described in F. Wunder et al., Anal. Biochem. 339, 104-112 (2005).
# Representative MEC values (MEC=minimum effective concentration) for the inventive compounds are shown in the table below (in some cases as mean values for individual determinations): […]
row,SMILES,MEC
1,"Cc1nc2c(OCc3c(F)cccc3F)cccn2c1-c1cn[nH]n1 [Example 134, 8-[(2,6-Difluorobenzyl)oxy]-2-methyl-3-(2H-1,2,3-triazol-4-yl)imidazo[1,2-a]pyridine]",1.0 µM
2,"Cc1ccc(-c2c(C)nc3c(OCc4c(F)cccc4F)cc(C)cn23)cc1 [Example 135, 8-[(2,6-Difluorobenzyl)oxy]-2,6-dimethyl-3-(4-methylphenyl)imidazo[1,2-a]pyridine]",3.0 µM
3,"Cc1cc(OCc2c(F)cccc2F)c2nc(C)c(-c3ncc(C)o3)n2c1 [Example 137, 8-[(2,6-Difluorobenzyl)oxy]-2,6-dimethyl-3-(5-methyl-1,3-oxazol-2-yl)imidazo[1,2-a]pyridine]",3.0 µM
4,"CCOC(=O)c1ncc(-c2c(C)nc3c(OCc4c(F)cccc4F)cc(C)cn23)s1 [Example 138, Ethyl 5-{8-[(2,6-difluorobenzyl)oxy]-2,6-dimethylimidazo[1,2-a]pyridin-3-yl}-1,3-thiazole-2-carboxylate]",3.0 µM
5,"CCOc1cc(-c2c(C)nc3c(OCc4c(F)cccc4F)cc(C)cn23)sc1N [Example 139, 5-{8-[(2,6-Difluorobenzyl)oxy]-2,6-dimethylimidazo[1,2-a]pyridin-3-yl}-3-ethoxythiophen-2-amine]",0.1 µM
6,"Cc1cc(OCc2c(F)cccc2F)c2nc(C)c(-c3cc(CO)no3)n2c1 [Example 142, (5-{8-[(2,6-Difluorobenzyl)oxy]-2,6-dimethylimidazo[1,2-a]pyridin-3-yl}-1,2-oxazol-3-yl)methanol]",0.1 µM

# Further lines, results first:
row,MEC,SMILES
1,0.1 µM,"Cc1cc(OCc2c(F)cccc2F)c2nc(C)c(-c3cccnc3)n2c1 [Example 140, 8-[(2,6-Difluorobenzyl)oxy]-2,6-dimethyl-3-(pyridin-3-yl)imidazo[1,2-a]pyridine]"
2,1.0 µM,"CCOC(=O)c1cc(-c2c(C)nc3c(OCc4c(F)cccc4F)cc(C)cn23)on1 [Example 141, Ethyl 5-{8-[(2,6-difluorobenzyl)oxy]-2,6-dimethylimidazo[1,2-a]pyridin-3-yl}-1,2-oxazole-3-carboxylate]"
3,1.0 µM,"Cc1cc(OCc2c(F)cccc2F)c2nc(C)c(-c3cc(CC(C)(C)N)n[nH]3)n2c1 [Example 143, 1-(3-{8-[(2,6-Difluorobenzyl)oxy]-2,6-dimethylimidazo[1,2-a]pyridin-3-yl}-1H-pyrazol-5-yl)-2-methylpropan-2-amine]"
4,0.3 µM,"Cc1cc(OCc2c(F)cccc2F)c2nc(C)c(-c3cc(CC(C)(C)N)no3)n2c1 [Example 144, 1-(5-{8-[(2,6-Difluorobenzyl)oxy]-2,6-dimethylimidazo[1,2-a]pyridin-3-yl}-1,2-oxazol-3-yl)-2-methylpropan-2-amine]"
